This assay concerns the target AMPK. Nature of the assay: AMPK activation, enzyme-linked immunosorbent assay. The conditions noted are these: ELISA. The class given is biochemical. The method, then:
Compounds 1-50 of Table 1 were assayed for their ability to activate AMPK using an enzyme-linked immunosorbent assay.
Compounds 51-60 of Table 1 were assayed for their ability to activate AMPK using an enzyme-linked immunosorbent assay.
Compounds 61-131 of Table 1 were assayed for their ability to activate AMPK using an enzyme-linked immunosorbent assay.
Compounds 137-141 and 143-155 of Table 1 were assayed for their ability to activate AMPK using an enzyme-linked immunosorbent assay.
Compounds 156-160 of Table 1 were assayed for their ability to activate AMPK using an enzyme-linked immunosorbent assay.
In general terms: In an ELISA, binding on a coated surface is turned into a signal by an enzyme label.

Structures are written as SMILES. Where a name gives a salt, the structure may show the parent alone. Some results are limits rather than exact numbers.

`N#Cc1ccccc1CN1CCC(NC(=O)c2cc3ccc(OC4CCN(c5ccc(C(F)(F)F)cc5)CC4)cc3s2)CC1` [Compound 146, N-(1-(2-cyanobenzyl)piperidin-4-yl)-6-(1-(4-(trifluoromethyl)phenyl)piperidin-4-yloxy)benzo[b]thiophene-2-carboxamide]: the concentration giving a half-maximal response (EC50) (Table 5, AMPK activation) was in the range of 100 to 500 nM. In the case of `CC(C)(C)OC(=O)N1CCC(NS(=O)(=O)c2ccc(OC3CCN(c4ccc(C(F)(F)F)cc4)CC3)nc2)CC1` [Compound 54, tert-butyl 4-(6-(1-(4-(trifluoromethyl)phenyl)piperidin-4-yloxy)pyridine-3-sulfonamido)piperidine-1-carboxylate], where the note is “Table 3, AMPK activation”, the EC50 is 1000 to 5000 nM. In turn, `O=C(N[C@@H]1CCN(S(=O)(=O)c2cccnc2)C1)c1cc2cc(OC3CCN(c4ccc(C(F)(F)F)cc4)CC3)ccc2o1` [Compound 126, (R)-N-(1-(pyridin-3-ylsulfonyl)pyrrolidin-3-yl)-5-(1-(4-(trifluoromethyl)phenyl)piperidin-4-yloxy)benzofuran-2-carboxamide] came in with a concentration for a half-maximal effect (EC50) (Table 4, AMPK activation) of 1000 to 10000 nM. Turning to `N#Cc1ccc(CN2CCC(NS(=O)(=O)c3ccc(OC4CCN(c5ccc(C(F)(F)F)cc5)CC4)nc3)CC2)cc1` [Compound 56, N-(1-(4-cyanobenzyl)piperidin-4-yl)-6-(1-(4-(trifluoromethyl)phenyl)piperidin-4-yloxy)pyridine-3-sulfonamide], the EC50 (Table 3, AMPK activation) was in the range of 5000 to 50000 nM.

Where the note is “Table 2, AMPK activation”, `N#Cc1ccc(CN2CCC(NC(=O)c3cncc(OC4CCN(c5ccc(C(F)(F)F)cc5)CC4)c3)CC2)cc1` [Compound 17, N-(1-(4-cyanobenzyl)piperidin-4-yl)-5-(1-(4-(trifluoromethyl)phenyl)piperidin-4-yloxy)nicotinamide] displayed an EC50 below 100 nM. As to `O=C(NC1CCN(Cc2cccnc2)CC1)c1cc2cc(OC3CCN(c4ccc(C(F)(F)F)cc4)CC3)ccc2o1` [Compound 101, N-(1-(pyridin-3-ylmethyl)piperidin-4-yl)-5-(1-(4-(trifluoromethyl)phenyl)piperidin-4-yloxy)benzofuran-2-carboxamide], the EC50 (Table 4, AMPK activation) was below 100 nM. With `O=C(NC1CCN(Cc2ccncc2)CC1)c1cc2ccc(OC3CCN(c4ccc(C(F)(F)F)cc4)CC3)cc2o1` [Compound 87, N-(1-(pyridin-4-ylmethyl)piperidin-4-yl)-6-(1-(4-(trifluoromethyl)phenyl)piperidin-4-yloxy)benzofuran-2-carboxamide], under “Table 4, AMPK activation”, the EC50 was below 100 nM. As for `O=C(N[C@@H]1CCN(Cc2ccccn2)C1)c1cc2cc(OC3CCN(c4ccc(C(F)(F)F)cc4)CC3)ccc2o1` [Compound 124, (R)-N-(1-(pyridin-2-ylmethyl)pyrrolidin-3-yl)-5-(1-(4-(trifluoromethyl)phenyl)piperidin-4-yloxy)benzofuran-2-carboxamide], the EC50 (Table 4, AMPK activation) lay within 1000 to 10000 nM. Under “Table 2, AMPK activation”, `O=C(NC1CCN(Cc2ccncc2)CC1)c1cc(OC2CCN(c3ccc(C(F)(F)F)cc3)CC2)ccn1` [Compound 13, N-(1-(pyridin-4-ylmethyl)piperidin-4-yl)-4-(1-(4-(trifluoromethyl)phenyl)piperidin-4-yloxy)picolinamide] registered an EC50 of 100 to 500 nM. `N#Cc1ccc(N2CCC(Oc3ccc4oc(C(=O)NC5CCN(Cc6ccccc6)CC5)cc4c3)CC2)cc1` [Compound 71, N-(1-benzylpiperidin-4-yl)-5-(1-(4-cyanophenyl)piperidin-4-yloxy)benzofuran-2-carboxamide formate salt] returned a half-maximal effective concentration (EC50) (Table 4, AMPK activation) below 100 nM. The same measure, in the same setting: with `O=C(NC1CCN(Cc2ccccc2)CC1)c1cc2cc(OC3CCN(Cc4cccc(C(F)(F)F)c4)CC3)ccc2o1` [Compound 73, N-(1-benzylpiperidin-4-yl)-5-(1-(3-(trifluoromethyl)benzyl)piperidin-4-yloxy)benzofuran-2-carboxamide] the figure was 500 to 1000 nM; with `O=C(NC1CCN(Cc2ccc(C(F)(F)F)cc2)CC1)c1cc2cc(OC3CCN(c4ccc(C(F)(F)F)cc4)CC3)ccc2o1` [Compound 100, N-(1-(4-(trifluoromethyl)benzyl)piperidin-4-yl)-5-(1-(4-(trifluoromethyl)phenyl)piperidin-4-yloxy)benzofuran-2-carboxamide], below 100 nM. Same read-out and setting: with `CC(C)(C)OC(=O)N1CCC(NC(=O)c2cc3ccc(OC4CCN(c5ccc(C(F)(F)F)cc5)CC4)cc3o2)CC1` [Compound 82, tert-butyl 4-(6-(1-(4-(trifluoromethyl)phenyl)piperidin-4-yloxy)benzofuran-2-carboxamido)piperidine-1-carboxylate] the figure was 100 to 500 nM. In turn, `N#Cc1ccc(CN2CC(NC(=O)c3ccc(OC4CCN(c5ccc(C(F)(F)F)cc5)CC4)cn3)C2)cc1` [Compound 41, N-(1-(4-cyanobenzyl)azetidin-3-yl)-5-(1-(4-(trifluoromethyl)phenyl)piperidin-4-yloxy)picolinamide] returned an EC50 (Table 2, AMPK activation) of 100 to 500 nM. For the setting “Table 4, AMPK activation”, `O=C(NC1CCN(Cc2ccccc2)CC1)c1cc2cc(OC3CCN(Cc4ccc(Cl)cc4)CC3)ccc2o1` [Compound 72, N-(1-benzylpiperidin-4-yl)-5-(1-(4-chlorobenzyl)piperidin-4-yloxy)benzofuran-2-carboxamide] came in with an EC50 of 100 to 500 nM. On to `O=C(N[C@H]1CCN(Cc2cccnc2)C1)c1cc2cc(OC3CCN(Cc4ccc(Cl)cc4)CC3)ccc2o1` [Compound 130, (S)-5-(1-(4-chlorobenzyl)piperidin-4-yloxy)-N-(1-(pyridin-3-ylmethyl)pyrrolidin-3-yl)benzofuran-2-carboxamide], for which the EC50 (Table 4, AMPK activation) lay in the range of 1000 to 10000 nM. Still for that read-out and setting: with `Cc1c(C(=O)NC2CCN(C(=O)OC(C)(C)C)CC2)oc2cc(OC3CCN(c4ccc(C(F)(F)F)cc4)CC3)ccc12` [Compound 61, tert-butyl 4-(3-methyl-6-(1-(4-(trifluoromethyl)phenyl)piperidin-4-yloxy)benzofuran-2-carboxamido)piperidine-1-carboxylate] the figure was 100 to 500 nM; with `O=C(NC1CCN(Cc2ccccc2)CC1)c1cc2cc(OC3CCN(c4ccc(OC(F)(F)F)cc4)CC3)ccc2o1` [Compound 80, N-(1-benzylpiperidin-4-yl)-5-(1-(4-(trifluoromethoxy)phenyl)piperidin-4-yloxy)benzofuran-2-carboxamide trifluoroacetate salt], below 100 nM. Consider `O=S(=O)(NC1CCN(Cc2cccc(C(F)(F)F)c2)CC1)c1ccc(OC2CCN(c3ccc(C(F)(F)F)cc3)CC2)nc1` [Compound 59, N-(1-(3-(trifluoromethyl)benzyl)piperidin-4-yl)-6-(1-(4-(trifluoromethyl)phenyl)piperidin-4-yloxy)pyridine-3-sulfonamide], for which the EC50 (Table 3, AMPK activation) lay within 100 to 500 nM. On to `CC(C)(C)OC(=O)N1CC[C@@H](NC(=O)c2cc3cc(OC4CCN(c5ccc(C(F)(F)F)cc5)CC4)ccc3o2)C1` [Compound 120, (R)-tert-butyl 3-(5-(1-(4-(trifluoromethyl)phenyl)piperidin-4-yloxy)benzofuran-2-carboxamido)pyrrolidine-1-carboxylate], for which the EC50 (Table 4, AMPK activation) was in the range of 1000 to 10000 nM.

Turning to `N#Cc1cccc(CN2CCC(NS(=O)(=O)c3ccc(OC4CCN(c5ccc(C(F)(F)F)cc5)CC4)nc3)CC2)c1` [Compound 57, N-(1-(3-cyanobenzyl)piperidin-4-yl)-6-(1-(4-(trifluoromethyl)phenyl)piperidin-4-yloxy)pyridine-3-sulfonamide], the EC50 (Table 3, AMPK activation) fell in the range of 500 to 1000 nM. `O=C(NC1CCN(Cc2ccc(F)cc2)CC1)c1cc2ccc(OC3CCN(c4ccc(OC(F)(F)F)cc4)CC3)cc2o1` [Compound 94, N-(1-(4-fluorobenzyl)piperidin-4-yl)-6-(1-(4-(trifluoromethoxy)phenyl)piperidin-4-yloxy)benzofuran-2-carboxamide]: the concentration giving a half-maximal response (EC50) (Table 4, AMPK activation) is below 100 nM.

As a reminder, the EC50 is the concentration at which the effect is half-maximal. Low values mean a more potent agent, high ones a less potent agent.

Values taken from patent US9174964B2, “AMPK-activating piperidinyloxy-substituted 2,3-dihydro-1H-indene-1-amine compounds and pharmaceutical compositions including the same” (Rigel Pharmaceuticals, Inc., priority 2007, dated 2015).
